Assay results from ChEMBL document CHEMBL1201862, “PubChem BioAssay data set” (2004).
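96-well plates; 48 h exposure; 5 concentrations. Endpoints by linear interpolation between flanking doses. Not reached: highest tested concentration assigned. The concentration for 50% growth inhibition is given as GI50.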 Active and inactive are the calls of the source. Cut-off read from the data, not from the text of the source: active = GI50 up to about 1.1 µM and inactive = higher.

Assays:
Assay in all cases: NCI anticancer screen, dose series, 48 h
SR = tested on: SR
SNB-19 = tested on: SNB-19
NCI-H522 = tested on: NCI-H522
NCI-H226 = tested on: NCI-H226
A498 = tested on: A498
SNB-75 = tested on: SNB-75
CCRF-CEM = tested on: CCRF-CEM
U-251 = tested on: U-251
HCT-116 = tested on: HCT-116
Malme-3M = tested on: Malme-3M
SF-295 = tested on: SF-295
M14 = tested on: M14
UACC-257 = tested on: UACC-257
UO-31 = tested on: UO-31
HT-29 = tested on: HT-29
MOLT-4 = tested on: MOLT-4
SF-268 = tested on: SF-268

Measured: GI50

COC(=O)C(C(=O)C(=O)Nc1ccc(C(F)(F)F)cc1[N+](=O)[O-])c1csc(-n2nc(-c3ccccc3)cc2-c2ccccc2)n1 (stereo unspecified)
inactive: SR > 100 µM | SNB-19 > 100 µM | NCI-H522 > 100 µM | NCI-H226 > 100 µM | A498 > 100 µM | SNB-75 > 100 µM | CCRF-CEM > 100 µM | U-251 > 100 µM | HCT-116 > 100 µM | Malme-3M > 100 µM | SF-295 > 100 µM | M14 > 100 µM | UACC-257 > 100 µM | UO-31 > 100 µM | HT-29 > 100 µM | MOLT-4 > 100 µM

CN(C(=O)C12C3C4C5C3C1(C(=O)O)C5C42)C(C)(C)C (stereo unspecified)
inactive: SR > 100 µM | SNB-19 > 100 µM | NCI-H522 > 100 µM | NCI-H226 > 100 µM | A498 > 100 µM | SNB-75 > 100 µM | CCRF-CEM 76.6 µM | SF-268 > 100 µM | U-251 > 100 µM | HCT-116 34.2 µM | Malme-3M > 100 µM | SF-295 > 100 µM | M14 > 100 µM | UACC-257 > 100 µM | UO-31 > 100 µM | HT-29 78.5 µM | MOLT-4 > 100 µM

CN(C)/N=N/c1ccc(S(N)(=O)=O)cc1
inactive: SR > 100 µM | SNB-19 > 100 µM | NCI-H522 > 100 µM | NCI-H226 > 100 µM | A498 > 100 µM | SNB-75 92.9 µM | CCRF-CEM 6.43 µM | SF-268 > 100 µM | U-251 > 100 µM | HCT-116 > 100 µM | Malme-3M > 100 µM | SF-295 > 100 µM | M14 > 100 µM | UACC-257 > 100 µM | UO-31 > 100 µM | HT-29 > 100 µM | MOLT-4 > 100 µM

O=[N+]([O-])c1cccc(S(=O)(=O)N/N=C/c2cc(I)cc([N+](=O)[O-])c2O)c1
inactive: SR 26.9 µM | SNB-19 23.9 µM | NCI-H522 18.8 µM | A498 > 100 µM | SNB-75 22.4 µM | CCRF-CEM 20.1 µM | SF-268 30.1 µM | U-251 20.9 µM | HCT-116 27.9 µM | Malme-3M 25.9 µM | SF-295 32.7 µM | M14 27.2 µM | UACC-257 25.2 µM | UO-31 26.1 µM | HT-29 26.7 µM | MOLT-4 31.5 µM

COc1ccc(-c2nc3c(nc2-c2ccc(OC)cc2)N(C)S(=O)(=O)N=C3N)cc1
inactive: SR 9.89 µM | SNB-19 28.1 µM | NCI-H522 9.59 µM | A498 22.5 µM | SNB-75 24 µM | CCRF-CEM 23.1 µM | SF-268 24.3 µM | U-251 26.1 µM | HCT-116 15 µM | Malme-3M 22.7 µM | SF-295 22.3 µM | M14 34.4 µM | UO-31 13.6 µM | HT-29 25.4 µM | MOLT-4 11.9 µM
